From patent US20120065066A1, “NOVEL HERBICIDES” (SYNGENTA CROP PROTECTION LLC, priority 2009, published 2012)

Assays:
Assay type in all cases: in vivo
Avena fatua (AVEFA) [1] = experiment: Test Example B, pre-emergence herbicidal test; details: 312 h, evaluated after 13 days, 100=total damage to plant, 0=no damage to plant
Method: (§1) Seeds of a variety of test species were sown in standard soil in pots. After cultivation for one day (pre-emergence) or after 8 days cultivation (post-emergence) under controlled conditions in a glasshouse (at 24/16° C., day/night; 14 hours light; 65% humidity), the plants were sprayed with an aqueous spray solution derived from the formulation of the technical active ingredient in acetone/water (50:50) solution containing 0.5% Tween 20 (polyoxyethelyene sorbitan monolaurate, CAS RN 9005-64-5). The test plants were then grown in a glasshouse under controlled conditions in a glasshouse (at 24/16° C., day/night; 14 hours light; 65% humidity) and watered twice daily. After 13 days for pre and post-emergence, the test was evaluated (100=total damage to plant; 0=no damage to plant). Test Plants: Setaria faberi (SETFA), Alopecurus myosuroides (ALOMY), Echinochloa crus-galli (ECHCG), and Avena fatua (AVEFA).

[2] = test system: Echinochloa crus-galli (ECHCG); experiment: Test Example B, pre-emergence herbicidal test; details: 312 h, evaluated after 13 days, 100=total damage to plant, 0=no damage to plant
Method: as §1

Setaria faberi (SETFA) [3] = experiment: Test Example B, pre-emergence herbicidal test; details: 250 g/ha, evaluated after 13 days, 100=total damage to plant, 0=no damage to plant
Method: as §1

[4] = test system: Alopecurus myosuroides (ALOMY); experiment: Test Example B, pre-emergence herbicidal test; details: 312 h, evaluated after 13 days, 100=total damage to plant, 0=no damage to plant
Method: as §1

Avena fatua (AVEFA) [5] = experiment: Test Example B, post-emergence herbicidal test; details: 312 h, evaluated after 13 days, 100=total damage to plant, 0=no damage to plant
Method: as §1

[6] = test system: Echinochloa crus-galli (ECHCG); experiment: Test Example B, post-emergence herbicidal test; details: 312 h, evaluated after 13 days, 100=total damage to plant, 0=no damage to plant
Method: as §1

Setaria faberi (SETFA) [7] = experiment: Test Example B, post-emergence herbicidal test; details: 250 g/ha, evaluated after 13 days, 100=total damage to plant, 0=no damage to plant
Method: as §1

[8] = test system: Alopecurus myosuroides (ALOMY); experiment: Test Example B, post-emergence herbicidal test; details: 312 h, evaluated after 13 days, 100=total damage to plant, 0=no damage to plant
Method: as §1

SMILES | pest or weed control at 250 g/ha (Avena fatua (AVEFA) [1]) [%] | pest or weed control at 250 g/ha [2] [%] | SETFA damage to plant (Setaria faberi (SETFA) [3]) | pest or weed control at 250 g/ha [4] [%] | pest or weed control at 250 g/ha (Avena fatua (AVEFA) [5]) [%] | pest or weed control at 250 g/ha [6] [%] | SETFA damage to plant (Setaria faberi (SETFA) [7]) | pest or weed control at 250 g/ha [8] [%]
CCc1ccc(-c2ccc(Cl)cc2)cc1C1=C(O)[C@H]2[C@@H]3CC[C@@H](C(=O)C3)[C@H]2C1=O (racemic) [Compound T7, rac-(3aS,4R,7R,7aR)-2-(4′-chloro-4-ethylbiphenyl-3-yl)hexahydro-4,7-ethanoindene-1,3,8-trione] | 70 | 100 | 90 | 90 | 20 | 20 | 60 | 20
CCc1ccc(-c2ccc(Cl)cc2)cc1C1=C(O)[C@H]2[C@@H]3CC[C@@H](C(=NOC)C3)[C@H]2C1=O (racemic) [Compound T9, rac-(3aS,4R,7R,7aR)-2-(4′-chloro-4-ethylbiphenyl-3-yl)hexahydro-4,7-ethanoindene-1,3,8-trione 8-(O-methyloxime)] | 0 | 0 | 0 | 0 | 60 | 90 | 100 | 70
Cc1cc(-c2ccccc2)cc(C)c1C1=C(O)[C@@H]2[C@H](C1=O)[C@@H]1C=C[C@H]2CC1 (racemic) [Compound T56, endo-(3aR,4S,7R,7aS)-2-(3,5-dimethylbiphenyl-4-yl)-3a,4,7,7a-tetrahydro-4,7-ethanoindene-1,3-dione] | 20 | 100 | 100 | 100 | 60 | 100 | 100 | 60
CCc1cc(C)cc(CC)c1C1=C(O)[C@H]2[C@H]3CC[C@](OC)(CC3)[C@H]2C1=O [Compound T57] | 100 | 100 | 100 | 100 | 30 | 100 | 100 | 70
CO/N=C1/C[C@H]2CC[C@@H]1[C@H]1C(=O)C(c3c(C)cc(C)cc3C)=C(O)[C@@H]21 [Compound T59] | 30 | 80 | 80 | 90 | 0 | 50 | 80 | 30
